Laboratory results reported in US9932376B2, “Analogues of temporin-SHa and uses thereof” (UNIVERSITE PIERRE ET MARIE CURIE (PARIS 6), priority 2013, dated 2018).
Entries after “also recorded” stand apart in the source; their conditions may differ. Ends that are not written are not given here.

Tests used:
[1] = tested on: Leishmania infantum promastigotes (strain MHOM/MA/67/ITMAP-263); test: Tests of anti-leishmanial activity on promastigotes expressing the luciferase; assay type: cell-based; conditions: result in words
Procedure: Leishmanicidal activity of peptides was evaluated on the promastigote form of Leishmania infantum (strain MHOM/MA/67/ITMAP-263), responsible for visceral leishmaniosis.
Promastigotes were maintained at 26° C. by one or two weekly passages, depending on the number of parasites in the inoculum, in SDM 79 medium supplemented with 10 to 20% decomplemented fetal calf serum and […] porcine hemin and in the presence of 100 U/mL penicillin and 100 μg/mL streptomycin (Brun et al., 1979). Starting from an inoculum of 10^5 cells/mL in logarithmic growth phase, the promastigotes reached a cell density of 1 to 2×10^8 parasites/mL in stationary phase after 5 days of culture in 25 cm^2 culture flasks. Cell densities were determined by flow cytometry in the presence of propidium iodide on a FAC Scan cytometer (Excalibur, Becton Dickinson, Ivry, France).
The tests of anti-leishmanial activity were carried out with a parasite line expressing the luciferase. […]
After 72 hrs of incubation at 26° C., 50 μL of Steady-Glo lysis buffer (Promega) were added to each well. […] Emitted luminescence was measured with a luminescence plate reader (Victor, PerkinElmer). […] The percentage growth was calculated according to the following formula: % growth=[(L mean−bgd)peptide×100]/(L mean−bgd)negative control
where L mean: mean luminescence and bgd: background corresponding to the luminescence emitted by the culture medium. […]

[2] = tested on: rat erythrocytes; test: Hemolytic test; assay type: cell-based; conditions: for hemolytic activity (in words): rat erythrocytes, result in words
Procedure: (§1) The hemolytic activity of the antimicrobial peptides was assessed using rat erythrocytes. Red blood cell hemolysis is manifested by the release into the reaction medium of hemoglobin, the concentration of which is determined spectrophotometrically at 450 nm.
(§2) Red blood cells were separated from plasma and white blood cells by centrifugation of blood (900×g, 10 min). The pellet containing red blood cells was washed three times with PBS buffer, pH 7.4. After counting on a Malassez cell, a stock solution of 4×10^8 red blood cells/mL was prepared in the same buffer. A series of concentrations of the peptides to be tested was prepared (2 to 400 μM).
(§3) The test was carried out as follows: 50 μL of the different peptide concentrations were added to 50 μL of the red blood cell suspension. After 1 hr of incubation at 37° C. followed by centrifugation (12,000×g, 15 sec), absorbance of the supernatant was measured at 450 nm. The negative control for this test (0% hemolysis) contained […] in place of the peptide solution. The positive control (100% hemolysis) contained 50 μL of 0.1% Triton X-100 in place of the peptide solution.
(§4) The LC50 value obtained is the mean of three experiments carried out in triplicate and corresponds to the peptide concentration inducing hemolysis of 50% of the cells.

[3] = Hemolytic test; assay type: cell-based, rat; conditions: rat erythrocytes (washed red blood cells), pH 7.4, rat erythrocytes, 1 hr at 37° C.; for CC50 at 1 hr: read-out: LC50 (hemolytic activity), unit inferred
Procedure: as §1, §2, §3, §4

[4] = tested on: Gram-positive and Gram-negative bacterial strains; assay type: cell-based
Description: The following strains were used for the antibacterial activity tests: Escherichia coli (ATCC 25922 and ML-35p), Staphylococcus aureus (ATCC 25923 and ST1065), Enterococcus faecalis (ATCC 29212), Pseudomonas aeruginosa (ATCC 27853), Streptococcus pyogenes (ATCC 19615), Listeria ivanovii, Salmonella enterica (serotype Enteritidis), Acinetobacter baumannii (ATCC 19606) and Klebsiella pneumoniae (ATCC 13883). Two antibiotic-resistant strains were also used (S. aureus ATCC 43300 and ATCC BAA-44).
For each strain, a standard inoculum of approximately 10^6 bacteria/mL (exponential growth phase) was prepared. To this end, a colony isolated on LB agar previously inoculated with one of the strains was cultured in 4 mL of LB broth medium, except for S. pyogenes and L. ivanovii, which were grown in BHI (Brain Heart Infusion) from a colony isolated on BHI agar. Liquid cultures were then incubated for 2 to 3 hrs at 37° C. with shaking for the bacteria to reach exponential growth phase. […]
The minimum inhibitory concentration (MIC) of each peptide was determined by a test of growth inhibition in broth medium. […] Bacterial growth was determined by measuring OD at 630 nm (turbidity) on a plate reader. […]

[5] = tested on: yeasts; test: Tests of antifungal activity (growth inhibition in YPD broth medium, MIC); assay type: cell-based
Procedure: Three yeast strains were used: Saccharomyces cerevisiae, Candida albicans (ATCC 90028), Candida parapsilosis (ATCC 22019). These strains were first grown on YPD agar for a minimum of 48 hrs. Yeast suspensions were then prepared, exactly as for bacteria, and adjusted to 10^6 cfu/mL in YPD broth medium.
The antifungal activity test corresponds to the growth inhibition test in broth medium used for the bacteria (see above) in which MH medium was replaced by YPD medium. Fungal strains were incubated at 30° C.

[6] = tested on: THP-1 monocyte-derived macrophages; test: Cytotoxicity test on THP-1 human monocytes-derived macrophages; assay type: cell-based; conditions: result in words
Procedure: The viability of macrophages was ascertained using a trypan blue-based microassay. THP-1 cells from a culture suspension in mid-log phase of growth were plated at a density of 5×10^5 cells/mL in 96-well plates (100 μL/well, i.e., 5×10^4 cells/well) and differentiated as described above. After incubation for 72 hrs at 37° C. with 5% CO2, in the presence of peptide (60 μM to 7.5 μM, final concentrations), adherent macrophages were washed once with prewarmed RPMI 1640 medium and stained for 5 min, with 100 μL of trypan blue 2-fold diluted in RPMI 1640 medium. Wells were then washed twice with 100 μL of RPMI 1640 medium. Living white cells were microscopically counted in three focuses per well using a reticulated ocular.
The viability index (VI) was calculated for each peptide concentration using the following formula: VI=[N meanpeptide×100]/N meannegative control.
where N mean is the mean number of viable parasites. The negative control (100% growth) contained 20 μL of RPMI medium in place of the peptide solution.
The LC50 value, which corresponds to the peptide concentration inducing lysis of 50% of the cells, was determined from the viability indexes. Tests were carried out in sextuplicate for each peptide concentration and at least two independent experiments were performed to determine the LC50 value.

[7] = tested on: Leishmania infantum axenic amastigote; conditions: read-out: IC50 against the axenic amastigote form; cited from earlier work
[8] = tested on: Leishmania infantum promastigote; conditions: read-out: IC50 against the promastigote form; cited from earlier work

Row | Substance | hemolytic activity (in words) [2] | CC50 at 1 hr [3] [µM] | further results
1 | F-L-K-G-I-K-G-M-L-G-K-L-L (FLKGIKGMLGKLL-NH2) [[K^3, K^6, L^13]temporin-SHa] |  |  | anti-leishmanial activity on L. infantum promastigotes (in words) [1]: approaches the cytotoxicity level of monocytes
2 | FLKGIKGMLGKLF-NH2 [[K^3,K^6]temporin-SHa, F-L-K-G-I-K-G-M-L-G-K-L-F] | no hemolytic activity | > 500 | 
3 | FLKGIVGKLGKLF-NH2 [[K^3,K^8]temporin-SHa, F-L-K-G-I-V-G-K-L-G-K-L-F] | no hemolytic activity | > 500 | 
4 | FLKGIVGKLGKLL-NH2 [[K^3, K^8,L^13]temporin-SHa, F-L-K-G-I-V-G-K-L-G-K-L-L] | no hemolytic activity | > 500 | 
5 | FLKGIVGMLGKLF-NH2 [[K^3]temporin-SHa] |  |  | MIC ([4]; Gram-positive (including antibiotic-resistant S. aureus strains) and Gram-negative bacterial strains of clinical interest): 3 to 6 µM; antimicrobial activity (in words) ([4]; bacteria and yeasts tested, result in words): more potent; MIC [5]: 3 to 6 µM
6 | FLKGIVGMLGKLL-NH2 [[K^3,L^13]temporin-SHa, F-L-K-G-I-V-G-M-L-G-K-L-L] | lower hemolytic activity; also recorded: lesser haemolytic |  | cytotoxicity against the host cell (macrophage) (in words) [6]: reduced cytotoxicity; fold lower hemolytic activity than [K^3]temporin-SHa ([2]; relative to [K^3]temporin-SHa): 2 fold
7 | FLKGIVGMLGKLW-NH2 [[K^3,W^13]temporin-SHa, F-L-K-G-I-V-G-M-L-G-K-L-W] | lower hemolytic activity; also recorded: lesser haemolytic |  | 
8 | FLSGIVGMLGKLF [temporin-SHa, F-L-S-G-I-V-G-M-L-G-K-L-F] |  |  | IC50 [7]: 22.8 µM; IC50 [8]: 18.1 µM
9 | KGIVGMLGKLF-NH2 [[K^3]temporin-SHa(3-13)] | devoid of hemolytic activity |  | HC50 at 1 hr ([3]; read-out: LC50 (hemolytic activity)): 618 µM
